Laboratory results as given in patent US7384912B2, “Treatment of bone disorders with skeletal anabolic drugs” (Osteotrophin, LLC, priority 2002, dated 2008).
No end group written: not given here.

Assays:
[1] = test system: adenylate cyclase in SaOS-2 membranes; test: Adenylate cyclase assay in SaOS-2 cell membranes; format: biochemical, human; settings: 30° C., 30 min
Procedure: (§1) Therefore, dose response curves for each peptide were generated at 30° C. for 10 min in human kidney and 30° C. for 30 min in SaOS-2 membranes. As with the intact cell adenylate cyclase assays, kidney and bone cell membrane adenlyate cyclase assays were performed under binding assay conditions. Results are expresses as percentage of maximal cAMP stimulation in order to compare peptide dose responses from different experiments.
(§2) Statistical differences were assessed by paired and unpaired two-tailed Student's t test.

[2] = test system: adenylate cyclase in SaOS-2 intact cells; test: Adenylate cyclase assay in SaOS-2 intact cells; format: cell-based, human; settings: 15° C., 60 min
Procedure: Adenylate cyclase-stimulating activity was examined in confluent SAOS-2 cells as previously described for ROS 17/2.8 cells (Merendino et al., Science 231:388-390, (1986)), with the following modification. The intact cell assay was conducted at 15° C., the same conditions employed for binding to intact SaOS-2 cells (vide supra). […] Dose response curves for each peptide were thus generated using 60 min incubations at 15° C. under binding assay conditions.
as §2

[3] = test system: ovariectomized osteopenic rats; settings: ovariectomized osteopenic rats (Vickery et al.); cited from earlier work
[4] = biological target: T1, PTH/PTHrP receptors in canine renal membranes (Canis lupus familiaris, UniProt Q9TU31); test: Competition binding to canine renal cortical membranes; settings: Scatchard analysis of equilibrium binding data
T1 construct: The renal cortex from adult mongrel dogs was homogenized; from tissue; host or cells: renal cortex of adult mongrel dogs, purified membranes
T1 sequence (Q9TU31 29-595): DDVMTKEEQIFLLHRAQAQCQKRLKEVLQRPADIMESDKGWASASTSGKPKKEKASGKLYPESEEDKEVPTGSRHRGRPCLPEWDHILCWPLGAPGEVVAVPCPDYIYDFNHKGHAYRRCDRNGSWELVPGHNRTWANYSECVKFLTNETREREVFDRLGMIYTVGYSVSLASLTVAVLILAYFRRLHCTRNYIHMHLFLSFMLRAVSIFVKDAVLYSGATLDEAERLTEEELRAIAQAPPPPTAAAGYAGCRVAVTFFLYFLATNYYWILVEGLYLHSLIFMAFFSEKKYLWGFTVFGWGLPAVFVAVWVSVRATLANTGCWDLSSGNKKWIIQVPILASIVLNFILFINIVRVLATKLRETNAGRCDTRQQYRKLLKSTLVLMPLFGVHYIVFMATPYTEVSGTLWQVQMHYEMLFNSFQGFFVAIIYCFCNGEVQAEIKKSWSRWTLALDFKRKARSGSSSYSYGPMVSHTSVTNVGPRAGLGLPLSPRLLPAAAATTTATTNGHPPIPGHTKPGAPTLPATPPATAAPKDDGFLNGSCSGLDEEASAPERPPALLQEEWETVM
Procedure: The renal cortex from adult mongrel dogs was homogenized in 3 volumes (ml:gm) of 0.25 M sucrose containing 5.0 mM Tris HCl (pH 7.5), 1.0 mM EDTA, 6.5 KIU/ml aprotinin and 50 μg/ml bacitracin (SET buffer) at 4° C. with ten 30 second strokes of a motor-driven teflon pestle at 2000 RPM. The homogenate was filtered through one thickness of nylon mesh and centrifuged at 1475×g for 10 mm. The supernatant was discarded and the pellet resuspended in 1 volume of 2.0 M sucrose, 5 mM Tris HCl, 1 mM EDTA (pH 7.5), 6.5 KIU/ml aprotinin, and 50 μg/ml bacitracin. This was centrifuged at 13,300×g for 10 minutes and the pellet discarded. The supernatant was diluted 8-fold with ET buffer (5 mM Tris HCl, 1 mM EDTA (Ph 7.5), 6.5 KIU/ml aprotinin, and 50 μg/ml bacitracin) and centrifuged at 20,000×g for 15 min. […]
Binding assays were conducted in siliconized 12×75 mm borosilicate glass test tubes at 20° C. in a final volume of 0.2 ml. […] Radioactivity in both the pellet and supernatant was measured.
Dissociation constants (Kd) were determined by Scatchard analysis of the data obtained from competitive binding experiments using radioligand and increasing concentrations of unlabeled ligand. […] Statistical differences were assessed by paired Student's t test. […] Significance was determined using a partial F-test.

[5] = test system: ovariectomized (OVX) rats; test: Body weight, serum chemistries, kidney calcium and deaths in ovariectomized rats
Procedure: All studies were performed using virus- and antibody-negative female Sprague-Dawley rats from Harlan Sprague-Dawley (Indianapolis, Ind.). All rats underwent sham ovariectomy or ovariectomy at 5 months of age. Studies began at six months of age, one month following ovariectomy or sham operation. Rats were maintained on a diet containing 0.5% calcium and 0.4% phosphorus. The light cycle was 12 hours.
The protocol employed is described in schematic form in Table IV. Animals were randomly assigned to 17 groups of 10 as described in the Table. […] For the peptide-treated animals, the peptide was administered daily, subcutaneously at a dose of 40 μg/kg/day, in the vehicle described above. For vehicle-treated animals, vehicle alone was administered in an identical fashion.
Serum and urine chemistries as described in Table XI were performed using standard autoanalyser methods (Boehringer-Mannheim-Hitachi, Indianapolis, Ind.). Kidney calcium content was determined following extraction of whole kidneys in 5% trichloroacetic acid, followed by calcium measurement by calcium analyzer (Calcette, Midfield, Mass.).

[6] = biological target: T2, PTH/PTHrP receptors in human renal cortical membranes (RCM) (Homo sapiens, UniProt Q03431); test: Competition binding of 125I-(Tyr36)hPTHrP-(1-36)NH2 to human renal cortical membranes
T2 sequence (Q03431 27-593): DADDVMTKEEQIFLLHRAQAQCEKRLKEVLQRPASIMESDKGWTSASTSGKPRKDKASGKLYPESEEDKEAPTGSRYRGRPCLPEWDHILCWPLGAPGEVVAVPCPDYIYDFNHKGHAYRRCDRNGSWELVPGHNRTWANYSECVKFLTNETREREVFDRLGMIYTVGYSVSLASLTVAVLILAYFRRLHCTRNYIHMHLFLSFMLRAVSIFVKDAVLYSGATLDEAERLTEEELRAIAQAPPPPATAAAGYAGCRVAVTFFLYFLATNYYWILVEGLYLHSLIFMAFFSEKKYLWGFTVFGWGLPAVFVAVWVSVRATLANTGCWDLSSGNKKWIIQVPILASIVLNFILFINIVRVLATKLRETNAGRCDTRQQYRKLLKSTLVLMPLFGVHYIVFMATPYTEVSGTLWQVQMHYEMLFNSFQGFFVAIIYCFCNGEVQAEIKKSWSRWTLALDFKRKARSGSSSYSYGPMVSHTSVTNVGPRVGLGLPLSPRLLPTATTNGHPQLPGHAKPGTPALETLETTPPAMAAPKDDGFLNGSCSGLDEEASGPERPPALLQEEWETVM
Procedure: All steps were performed in the presence of the following protease inhibitors: aprotinin [10 Kallikrein inhibitor units (KIU/ml], pepstatin (5 μg/ml), leupeptin (45 μg/ml), and phenylmethanesulfanylfluoride (10 μg/ml). Normal human kidney cortex was from four separate nephrectomy specimens removed for localized transitional cell carcinoma, renal cell carcinoma, or benign cysts. Renal function in all individuals was normal as assessed by serum creatinine and pyelography. Membranes were pooled, aliquoted, and stored at −70° C. for later use.
Human RCM were added to a final concentration of 90 μg/ml. […] The incubation time of 30 min was used for subsequent equilibrium binding competition studies.
as §2

[7] = biological target: T3, PTH/PTHrP receptors in SaOS-2 membranes (Homo sapiens, UniProt Q03431); test: Competition binding of 125I-(Tyr36)hPTHrP-(1-36)NH2 to SaOS-2 membranes; settings: 30° C., 60 min
T3 sequence (Q03431 27-593): T2 sequence (Q03431 27-593)
Procedure: Briefly, postconfluent cells in 150 cm^2 flasks were scraped into membrane buffer [10 mM Tris HCl (pH 7.5), 0.2 mM MgCl2, 0.5 mM EGTA, 1 mM dithiothreitol, leupeptin 45 μg/ml, pepstatin 5 μg/ml, aprotinin 10 KIU/ml, and phenylmethane sulfanyl-fluoride 10 μg/ml] at 0° C. Cell disruption was achieved by sonification and the suspension was centrifuged at 13,000×g for 15 min at 4° C. […] The suspension was layered onto a cushion of the membrane buffer containing 45% sucrose and centrifuged at 70,000×g for 30 min at 4° C. […] Protein concentrations were determined by the method of Lowry using BSA as standard.
The binding assay for SaOS-2 membranes was conducted as for human RCM. Membranes were added to a final concentration of 112.5 μg/ml and specific binding reached equilibrium by 60 min at 30° C.

[8] = biological target: T4, PTH/PTHrP receptors on SaOS-2 intact cells (Homo sapiens, UniProt Q03431); test: Competition binding of 125I-(Tyr36)hPTHrP-(1-36)NH2 to SaOS-2 intact cells
T4 sequence (Q03431 27-593): T2 sequence (Q03431 27-593)
Procedure: The medium was changed every other day, and studies were performed at 5-7 days post confluence. Cell numbers were determined using a Coulter counter.
Binding studies were conducted at 15° C. in the presence of chymostatin (100 μg/ml) and bacitracin (200 μg/ml). […] The incubation time of 150 min was therefore used for competitive binding studies.

[9] = test system: adenylate cyclase in canine renal cortical membranes (CRCM); test: Canine renal cortical membrane adenylate cyclase assay, standard assay; format: biochemical; settings: 30 min, 30° C.
From the text: Results are expressed as the percent increment in adenylate cyclase activity in tubes containing the peptides as compared with tubes containing vehicle only.

[10] = test system: adenylate cyclase in highly purified canine renal membranes; test: Canine renal adenylate cyclase assay under binding assay conditions; format: biochemical; settings: 20° C., 20 min, with bacitracin
Procedure: Adenylate cyclase-stimulating activity of both peptides was also examined using highly purified 32% interface membranes. Incubation was carried out under binding conditions at 20° C. for 20 min in the presence of the protease inhibitor, bacitracin (200 μg/ml). All other aspects of this assay were identical to the standard assay.

[11] = biological target: T5, adenylate cyclase in human renal cortical membranes (RCM) (Homo sapiens, UniProt Q03431); test: Adenylate cyclase assay in human kidney membranes; format: biochemical; settings: both membrane preparations (RCM and SaOS-2 membranes)
T5 sequence (Q03431 27-593): T2 sequence (Q03431 27-593)
Procedure: as §1, §2

## CCCC[C@H](NC(=O)[C@H](CO)NC(=O)[C@H](CC(N)=O)NC(=O)[C@H](CC(C)C)NC(=O)[C@H](Cc1c[nH]cn1)NC(=O)[C@H](CCCCN)NC(=O)CNC(=O)[C@H](CC(C)C)NC(=O)[C@H](CC(N)=O)NC(=O)[C@H](Cc1c[nH]cn1)NC(=O)[C@H](CCCC)NC(=O)[C@H](CC(C)C)NC(=O)[C@H](CCC(N)=O)NC(=O)[C@@H](NC(=O)[C@H](CCC(=O)O)NC(=O)[C@H](CO)NC(=O)[C@@H](NC(=O)[C@@H](N)CO)C(C)C)[C@@H](C)CC)C(=O)N[C@@H](CCC(=O)O)C(=O)N[C@@H](CCCNC(=N)N)C(=O)N[C@H](C(=O)N[C@@H](CCC(=O)O)C(=O)N[C@@H](Cc1c[nH]c2ccccc12)C(=O)N[C@@H](CC(C)C)C(=O)N[C@@H](CCCNC(=N)N)C(=O)N[C@@H](CCCCN)C(=O)N[C@@H](CCCCN)C(=O)N[C@@H](CC(C)C)C(=O)N[C@@H](CCC(N)=O)C(=O)N[C@@H](CC(=O)O)C(=O)N[C@H](C(=O)N[C@@H](Cc1c[nH]cn1)C(=O)N[C@@H](CC(N)=O)C(=O)N[C@@H](Cc1ccc(O)cc1)C(=O)O)C(C)C)C(C)C [(Nle^8,18Tyr^34)hPTH-(1-34), (Nle^8,18, Tyr^34)hPTH-(1-34)]
[1]
  EC50: 1.9 ± 0.4 nM
[2]
  EC50: 2.3 ± 0.4 nM

## [MAP1-10]22-31 hPTHrP-(1-34)NH2
[3]
  anabolic activity versus parent peptide: greater anabolic activity than the parent peptide

## [Nle^8,18,Tyr^34]hPTH-(1-34)amide
[4]
  Bmax: 2.73±0.31 pmol/mg protein

## SVSEIQLLHDKGKHLASQERVEWLRKKLQDVHTA [SDZ PTH 893, Leu^8, Asp^10, Lys^11, Ala^16, Gln^18, Thr^33, Ala^34hPTH(1-34)]
[5]; 30 OVX rats per peptide, 40 μg/kg/day, six month study
  treated animals that died during the study: 13%
[5]; rat, in vivo
  renal calcium content, in words: marked increases in renal calcium content

## hPTHrP-(37-74) (RATSEVSPNSKPSPNTKNHPVRFGSDDEGRYLTQETNK) [Human PTHrP fragment 37-74 prepared by solid phase synthesis]
[6]; human RCM, 30° C., 30 min
  Binding (IC50) Kidney membranes: did not inhibit binding
[7]
  Binding (IC50) SaOS membranes: did not inhibit binding
[8]; intact cells, 15° C., 150 min
  Binding (IC50) SaOS cells: did not inhibit binding

## bovine (b)PTH-(1-34) [bPTH-(1-34)]
[1]
  EC50: 0.5 ± 0.06 nM
[2]
  EC50: 1.2 ± 0.1 nM
[9]
  potency relative to PTHrP-(1-36): greater than 6 fold
[10]
  adenylate cyclase stimulation greater than for PTHrP-(1-36): 15 fold

## rat (r)PTH-(1-34) [rPTH-(1-34)]
[11]
  more potent than hPTHrP-(1-36) in stimulating adenylate cyclase: 10 fold
[1]
  EC50: 0.09 ± 0.03 nM
[2]
  EC50: 0.9 ± 0.1 nM

## AVSEHQLLHDKGKSIQDLRRRIFLQNLIEGVNTAEY-NH2 [(Tyr^36)cPTHrP-(1-36)NH2, (Tyr^36) chicken (c)PTHrP-(1-36)amide]
[6]; human RCM, 30° C., 30 min, read-out: Binding (IC50) Kidney membranes
  IC50: 0.47 ± 0.22 nM
[7]
  IC50: 1.1 ± 0.3 nM

## hPTHrP-(1-74)
[6]; RCM
  affinity less than that of hPTHrP-(1-36): 25 fold
[8]; SaOS-2 cells
  affinity less than that of hPTHrP-(1-36): 9 fold
[2]
  EC50: 9.2 ± 1 nM
